Measured values published in patent US20240199555A1, “APPLICATIONS OF BIASED LIGANDS OF THE SEROTONIN 5-HT7 RECEPTOR FOR THE TREATMENT OF PAIN, MULTIPLE SCLEROSIS AND THE CONTROL OF THERMOREGULATION” (Centre National de la Recherche Scientifique, priority 2021, published 2024).
Read-outs that look alike come from different tables or passages of the source.

Assays:
[1] = target: human 5-HT7a receptor (Homo sapiens (Human), UniProt P34969); test: Radioligand binding competition, filtration binding assay, 5-HT7a; conditions: affinity on 5-HT7 receptor, table of new compounds
human 5-HT7a receptor, sequence (P34969 other isoform, or with tags, fused parts or gaps): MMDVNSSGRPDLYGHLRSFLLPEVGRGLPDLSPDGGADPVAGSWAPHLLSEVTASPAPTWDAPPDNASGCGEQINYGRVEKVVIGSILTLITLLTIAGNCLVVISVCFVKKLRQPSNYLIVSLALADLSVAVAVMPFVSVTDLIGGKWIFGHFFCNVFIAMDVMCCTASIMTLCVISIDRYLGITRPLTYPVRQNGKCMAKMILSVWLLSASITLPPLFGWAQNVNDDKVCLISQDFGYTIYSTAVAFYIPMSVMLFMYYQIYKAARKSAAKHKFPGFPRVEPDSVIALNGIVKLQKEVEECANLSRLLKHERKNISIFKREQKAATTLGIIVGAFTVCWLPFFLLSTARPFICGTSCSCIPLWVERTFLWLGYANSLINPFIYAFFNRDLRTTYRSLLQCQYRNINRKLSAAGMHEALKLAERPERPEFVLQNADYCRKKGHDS
Experimental: (§1) FIG. 14: Testing of 8 molecules for radioligand binding competition activity on recombinant human 5-HT1A, 5-HT2A, 5-HT2Cedited, 5-HT6, 5-HT7 and D2(long) receptors using filtration binding assays.
(§2) Radioligand Binding experiments were conducted with Epics Therapeutics membrane preparations. Receptor accession numbers, cellular background and reference compounds are shown in this table.
Reference values thus obtained for the test were compared to historical values obtained from the same receptor and used to validate the experimental session. For replicate determinations, the maximum variability tolerated in the test was of +/−20% around the average of the replicates.
(§3) Dose-response data from test compounds were analyzed with XLfit (IDBS) software using nonlinear regression applied to a sigmoidal dose-response model and the following equation: • XL Fit fit Model 203: 4 Parameter Logistic Model • A: Bottom • B: TOP • C: LogEC50 • D: Hill

[2] = target: human 5-HT1A receptor (Homo sapiens (Human), UniProt P08908); test: Radioligand binding competition, 5-HT1A; conditions: selectivity panel; for IC50: read-out: RLB 5-HT1A IC50; for Ki: read-out: RLB 5-HT1A Ki
human 5-HT1A receptor, sequence (P08908 whole entry): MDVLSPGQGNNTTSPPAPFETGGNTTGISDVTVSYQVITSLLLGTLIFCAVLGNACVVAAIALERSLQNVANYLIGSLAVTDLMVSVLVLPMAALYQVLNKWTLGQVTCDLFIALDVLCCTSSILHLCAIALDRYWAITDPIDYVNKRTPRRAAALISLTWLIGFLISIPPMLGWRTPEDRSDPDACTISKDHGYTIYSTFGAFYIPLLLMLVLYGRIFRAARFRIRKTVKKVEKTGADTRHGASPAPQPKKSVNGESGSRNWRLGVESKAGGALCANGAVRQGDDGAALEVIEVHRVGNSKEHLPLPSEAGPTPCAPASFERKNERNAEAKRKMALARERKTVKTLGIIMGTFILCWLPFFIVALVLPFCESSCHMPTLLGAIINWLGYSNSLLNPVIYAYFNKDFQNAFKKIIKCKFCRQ
Experimental: as §1, §2
(§4) The new compounds have been tested by radioligand binding competition activity at the human 5-HT1A (FAST-0500B), 5-HT2A (FAST-0505B), 5-HT2Cedited (FAST-0507B), 5-HT6 (FAST-0509B), 5-HT7a (FAST-05111B) and D2(long) (FAST-0101B) receptors at seven (7) concentrations, in duplicate. […] Reference values thus obtained for the test were compared to historical values obtained from the same receptor and used to validate the experimental session. For replicate determinations, the maximum variability tolerated in the test was of +/−20% around the average of the replicates.
as §3

[3] = target: human 5-HT2A receptor (Homo sapiens (Human), UniProt P28223); test: Radioligand binding competition, 5-HT2A; conditions: selectivity panel; for IC50: read-out: RLB 5-HT2A IC50; for Ki: read-out: RLB 5-HT2A Ki
human 5-HT2A receptor, sequence (P28223 whole entry): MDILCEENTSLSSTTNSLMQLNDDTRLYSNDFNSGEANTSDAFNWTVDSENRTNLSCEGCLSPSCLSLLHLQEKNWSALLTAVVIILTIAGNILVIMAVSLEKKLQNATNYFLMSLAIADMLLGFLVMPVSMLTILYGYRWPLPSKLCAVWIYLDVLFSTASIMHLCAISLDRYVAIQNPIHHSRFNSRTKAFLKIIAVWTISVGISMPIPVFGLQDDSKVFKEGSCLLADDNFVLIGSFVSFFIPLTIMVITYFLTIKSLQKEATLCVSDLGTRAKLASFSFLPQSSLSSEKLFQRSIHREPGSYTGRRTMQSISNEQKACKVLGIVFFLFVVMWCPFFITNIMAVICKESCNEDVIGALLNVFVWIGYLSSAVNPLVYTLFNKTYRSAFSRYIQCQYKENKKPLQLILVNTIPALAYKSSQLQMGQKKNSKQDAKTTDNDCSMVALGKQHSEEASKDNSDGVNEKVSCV
Experimental: as §1, §2, §4, §3

[4] = target: human 5-HT2Cedited receptor (Homo sapiens, UniProt P28335); test: Radioligand binding competition, 5-HT2Cedited
human 5-HT2Cedited receptor, sequence (P28335 33-458 limits assumed): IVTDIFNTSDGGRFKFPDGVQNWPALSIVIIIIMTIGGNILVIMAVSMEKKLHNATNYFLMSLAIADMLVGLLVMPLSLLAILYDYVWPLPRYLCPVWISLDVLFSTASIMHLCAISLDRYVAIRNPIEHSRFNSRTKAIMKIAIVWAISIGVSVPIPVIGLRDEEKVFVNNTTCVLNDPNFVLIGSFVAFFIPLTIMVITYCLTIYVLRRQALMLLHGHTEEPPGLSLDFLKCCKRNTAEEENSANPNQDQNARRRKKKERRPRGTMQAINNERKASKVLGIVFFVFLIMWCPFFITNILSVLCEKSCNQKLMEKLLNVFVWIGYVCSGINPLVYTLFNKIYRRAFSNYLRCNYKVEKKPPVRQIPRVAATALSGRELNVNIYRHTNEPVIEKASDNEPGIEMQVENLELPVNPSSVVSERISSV
Experimental: as §1, §2, §4, §3

[5] = system: mice; test: Tail immersion test (50° C.); type: in vivo; conditions: administrated alone, i.p.
Experimental: (A) Experimental protocol summary used. (B) Mice were subcutaneously injected with two different doses of the 5-HT7 receptor agonist Serodolin, 1 mg/kg or 5 mg/kg and 10 min later their tail extremity was immersed in water heated to 50 degrees. […] The effect of injections (Serodolin or E55888) was evaluated at TO, 30 min and 60 min corresponding to 10, 40 and 70 min after compound injections. […] Their tail extremity was immersed in water heated to 50 degrees at TO (E) or 30 min later (F) corresponding to 10 and 40 min after agonist injections. […] Statistical analysis was done using Tukey's multiple comparison test.
Tail immersion test. Nociception was assessed with the tail immersion test, 10 min and 40 min after E55888 (5 mg/kg) or Serodolin (5 mg/kg) tail subcutaneous injections, in the water heated to 50° C. Vehicle (20% DMSO, 5% Tween 80 diluted in PBS solution) was used as a control group. These different groups were intraperitoneally injected (+) or not (−) with the 5-HT7R antagonist SB269960 (5 mg/kg) 10 min before the ligand injection. The tail withdrawal latency (s) was measured for each animal.

[6] = system: mice; test: Acetic acid-induced writhing test; type: in vivo; conditions: 3 mg/kg, s.c., positive control
Experimental: (§5) FIG. 9: Analgesic effect of Serodolin in the acetic acid-induced writhing test. In this test, nociception was induced by an intraperitoneally injection (ip) of 0.1 ml/10 g acid acetic solution (10 ml/kg) in peripheral origin. Serodolin at increasing dosage was administrated by oral (po), intravenous (iv) or subcutaneous (sc) route before acid acetic injection (upper panel). Positive control animals were pretreated morphine (3 mg/kg, sc) 10 minutes before acetic acid. Five minutes after i.p. injection of acetic acid the number of writhing was recorded for 10 minutes. Data mean±SEM of values obtained from a representative experiment (n=10 animals/group). ****p<0.0001 ***p<0.001 **p<0.01 *p<0.05 as compared with the control group (Vh).
as §5, with “16:” for “9:”, “MOA51” for “Serodolin”, “i.p.injection” for “i.p. injection”, “animals/group).” for “animals/group). ****p<0.0001 ***p<0.001”, “**p<0.01” for “**p<0.01 *p<0.05”
Writhing tests: Mice (25-35 g). Groups of mice (n=10) received by oral, subcutaneous or intravenous route Serodolin at different doses (0.1-10 mg/kg) one hour before intraperitoneally injection of 1% acetic acid in a volume of 10 ml/kg. Control group received vehicle (10 ml/kg, solution of 20% DMSO and 5% tween 80). The test was carried out 5 minutes later after acid acetic injection. The characteristic writhing responses have been observed individually and counted for 10 minutes.
Analgesic activity was first evaluated using the acetic acid abdominal constriction test (writhing test), a chemical model of visceral pain. We evaluated the dose-response effect of Serodolin following single oral, intravenous and subcutaneous administration of the compound one hour before injection of acetic acid.
Analgesic activity was evaluated using the acetic acid abdominal constriction test (writhing test), a chemical model of visceral pain. We evaluated the dose-response effect of MOA51 following single oral, intravenous and subcutaneous administration of the compound one hour before injection of acetic acid. MOA51 administered by the oral route induced statistically significant dose-dependent decreases in the number of writhings at and above the dose of 1 mg/kg. By the intravenous route, MOA51 induced dose-dependent decreases in the number of writhings at and above the dose of 0.1 mg/kg.

[7] = system: Sprague-Dawley male rats; test: Formalin induced inflammatory pain model; type: in vivo; conditions: single s.c., Serodolin 10 mg/kg, MOA51 1 mg/kg, morphine
Experimental: FIG. 18: Effect of a single administration of Serodolin (AIC01) or MOA51 in the formalin test in rats. Effect of a single subcutaneous administration of Serodolin (AIC01) or MOA51 in the formalin test in rats. In this test, Sprague-Dawley male rats received unilateral injection of a 2.5% formalin solution (50 μl) into the plantar aspect of the hindpaw on testing day (i.e. D0). Control group received Vehicle (20% DMSO/5% Tween 80/NaCl). Serodolin was subcutaneously (sc) administrated at 10 mg/kg and MOA51 at 1 mg/kg. Positive control animals were treated with morphine (3 mg/kg, sc). Paw licking time was measured. Results are expressed as mean±s.e.m. Percentage are expressed as decreased as compared to the vehicle-treated group and represented as figure (B). ***: p<0.001 as compared to the vehicle-treated group, Bonferroni's test after significant Two-way Repeated Measures ANOVA. NS: Non-significant.
Sprague-Dawley male rats (n=10 rats per group) received unilateral injection of a 2.5% formalin solution (50 μl) into the plantar aspect of the hindpaw on testing day (i.e. D0). Experience was separated into 4 groups of animals. Formalin animals+vehicle-treated group; […]—Formalin animals+Sponsor's Serodolin (10 mg/kg), s.c.—Formalin animals+Sponsor's MOA51 (1 mg/kg), s.c.—Formalin animals+internal validator-treated group (Morphine at 4 mg/Kg, s.c.). Single subcutaneous administration of the Vehicle and Sponsor's Compound 30 min (or other timing depending on Sponsor's design) before formalin injection on testing day (i.e. D0)/Subcutaneous administration of Morphine 30 min before formalin injection on testing day (i.e. D0). Hindpaw licking time recorded in consecutive 5 minutes periods from 0 to 5 minutes (early phase) and 17 to 27 minutes (late phase) after formalin injection.
We evaluated the effect of Serodolin as well as MOA51 in rats in the formalin test, an acute and tonic pain model based on the use of a chemical stimulus. Subcutaneous injection of formalin into the right hindpaw produces a biphasic painful response of increasing and decreasing intensity for about 30 minutes after the injection. […] Although not significant, Serodolin, MOA51 and morphine have an inhibitory effect (−40%, −35% and −57% respectively) during the early phase.

Row | Compound | IC50 [1] | Ki [1] | further results
1 | O=c1[nH]c2ccccc2n1CCCCCN1CCN(c2ccccc2O)CC1 [JLB010] | 7.99 nM | 5.61 nM | –
2 | O=c1[nH]c2ccccc2n1CN1CCN(c2ccccc2C(F)(F)F)CC1 [JLB011] | 4.74 nM | 3.33 nM | –
3 | O=c1[nH]c2ccccc2n1CCCCCN1CCN(c2ccccn2)CC1 [JLB012] | 1.69 nM | 1.18 nM | IC50 [2]: 41.3 nM; Ki [2]: 20.7 nM; IC50 [3]: 44.2 nM; Ki [3]: 7.3 nM; IC50 ([4]; read-out: RLB 5-HT2Cedited IC50; selectivity panel): 5250 nM; Ki ([4]; read-out: RLB 5-HT2Cedited Ki; selectivity panel): 863 nM
4 | O=c1[nH]c2ccccc2n1CCCCCN1CCN(c2ncccn2)CC1 [JLB013] | 9.68 nM | 6.8 nM | –
5 | O=c1[nH]c2ccccc2n1CCCCCN1CCN(c2ccccc2F)CC1 [JLB014] | 3.29 nM | 2.31 nM | –
6 | O=c1[nH]c2ccccc2n1CCCCCN1CCN(c2ccc(F)cc2)CC1 [JLB015] | 4.39 nM | 3.09 nM | –
7 | O=c1[nH]c2ccccc2n1CCCCCN1CCN(c2ccc(C(F)(F)F)cc2)CC1 [JLB017] | 7.19 nM | 5.05 nM | –
8 | O=c1[nH]c2ccccc2n1CCCCCN1CCN(c2ccncc2)CC1 [JLB020] | 260 nM | 182 nM | –
9 | O=c1[nH]c2ccccc2n1CCCCCN1CCN(c2ccncn2)CC1 [JLB022] | 136 nM | 95.5 nM | –
10 | O=c1[nH]c2ccccc2n1CCCCCN1CCN(c2ncncn2)CC1 [JLB023] | 370 nM | 260 nM | –
11 | O=c1[nH]c2ccccc2n1CCOCCN1CCN(c2ccc(F)cc2)CC1 [JLB048] | 19.1 nM | 13.4 nM | –
12 | O=c1[nH]c2ccccc2n1CCCCCN1C[C@@H]2CN(c3ccc(F)cc3)C[C@@H]2C1 [JLB061] | 5.97 nM | 4.19 nM | –
13 | O=c1[nH]c2ccccc2n1CCCCCN1CC2(C1)CN(c1ccc(F)cc1)C2 [JLB088, 1-(5-(6-(4-fluorophenyl)-2,6-diazaspiro[3.3]heptan-2-yl)pentyl)-1H-benzo[d]imidazol-2(3H)-one] | 174 nM | 122 nM | –
14 | CC(C)(CCN1CCN(c2ccc(F)cc2)CC1)CCn1c(=O)[nH]c2ccccc21 [JLB094] | 2.7 nM | 1.9 nM | IC50 [2]: 167 nM; Ki [2]: 83.6 nM; IC50 [3]: 6.23 nM; Ki [3]: 1.02 nM; IC50 ([4]; selectivity panel; read-out: RLB 5-HT2Cedited IC50): 1100 nM; Ki ([4]; selectivity panel; read-out: RLB 5-HT2Cedited Ki): 181 nM
15 | O=c1[nH]ccn1CCCCCN1CCN(c2ccc(F)cc2)CC1 [JLB102, 1-(5-(4-(4-fluorophenyl)piperazin-1-yl)pentyl)-1H-imidazol-2(3H)-one] | 17 nM | 11.9 nM | –
16 | O=c1[nH]c2ccccc2n1CCCCCN1CCCN(c2ccccn2)CC1 [JLB118, 1-(5-(4-(pyridin-2-yl)-1,4-diazepan-1-yl)pentyl)-1H-benzo[d]imidazol-2(3H)-one] | 69.7 nM | 48.9 nM | –
17 | Cc1ccc(N2CCCN(CCCCCn3c(=O)[nH]c4ccccc43)CC2)cc1 [JLB119, 1-(5-(4-(p-tolyl)-1,4-diazepan-1-yl)pentyl)-1H-benzo[d]imidazol-2(3H)-one] | 24.2 nM | 17 nM | –
18 | Cc1ccc(N2CC3(CN(CCCCCn4c(=O)[nH]c5ccccc54)C3)C2)cc1 [JLB137, 1-(5-(6-(p-tolyl)-2,6-diazaspiro[3.3]heptan-2-yl)pentyl)-1H-benzo[d]imidazol-2(3H)-one] | 687 nM | 482 nM | –
19 | O=c1[nH]c2ccccc2n1CCCCCN1CC2(C1)CN(c1ccccn1)C2 [JLB138, 1-(5-(6-(pyridin-2-yl)-2,6-diazaspiro[3.3]heptan-2-yl)pentyl)-1H-benzo[d]imidazol-2(3H)-one] | 5070 nM | 3560 nM | –
20 | O=c1[nH]c2ccccc2n1CCCCCN1CCN(c2ccc(O)cc2)CC1 [MOA43] | 1.95 nM | 1.37 nM | –
21 | CC1CCN(CC[C@H]2CCCN2S(=O)(=O)c2cccc(O)c2)CC1 [SB269970, reference compound] | – | – | acute thermal nociception, antagonist administrated alone [5]: did not exert any significant effect on acute thermal nociception
22 | CN1CC[C@]23c4c5ccc(O)c4O[C@H]2[C@@H](O)C=C[C@H]3[C@H]1C5 [morphine, reference compound] | – | – | inhibition of the writhing assay response [6]: full inhibition; inhibitory effect on paw licking, early phase ([7]; 0 to 5 minutes, not significant): −57%; inhibition of licking, late phase ([7]; 17 to 27 minutes): −64%
